Test results reported in patent publication US6211200A, “Metal complexes” (SmithKline Beecham Corporation, priority 1998, dated 2001).

T1: G-CSF receptor (Mus musculus, UniProt P40223)
T1 construct: they express endogenous G-CSF receptors; endogenous in cells; host or cells: NFS60 (murine myeloid cell line) containing a G-CSF-responsive element / luciferase reporter
T1 sequence (P40223 26-837): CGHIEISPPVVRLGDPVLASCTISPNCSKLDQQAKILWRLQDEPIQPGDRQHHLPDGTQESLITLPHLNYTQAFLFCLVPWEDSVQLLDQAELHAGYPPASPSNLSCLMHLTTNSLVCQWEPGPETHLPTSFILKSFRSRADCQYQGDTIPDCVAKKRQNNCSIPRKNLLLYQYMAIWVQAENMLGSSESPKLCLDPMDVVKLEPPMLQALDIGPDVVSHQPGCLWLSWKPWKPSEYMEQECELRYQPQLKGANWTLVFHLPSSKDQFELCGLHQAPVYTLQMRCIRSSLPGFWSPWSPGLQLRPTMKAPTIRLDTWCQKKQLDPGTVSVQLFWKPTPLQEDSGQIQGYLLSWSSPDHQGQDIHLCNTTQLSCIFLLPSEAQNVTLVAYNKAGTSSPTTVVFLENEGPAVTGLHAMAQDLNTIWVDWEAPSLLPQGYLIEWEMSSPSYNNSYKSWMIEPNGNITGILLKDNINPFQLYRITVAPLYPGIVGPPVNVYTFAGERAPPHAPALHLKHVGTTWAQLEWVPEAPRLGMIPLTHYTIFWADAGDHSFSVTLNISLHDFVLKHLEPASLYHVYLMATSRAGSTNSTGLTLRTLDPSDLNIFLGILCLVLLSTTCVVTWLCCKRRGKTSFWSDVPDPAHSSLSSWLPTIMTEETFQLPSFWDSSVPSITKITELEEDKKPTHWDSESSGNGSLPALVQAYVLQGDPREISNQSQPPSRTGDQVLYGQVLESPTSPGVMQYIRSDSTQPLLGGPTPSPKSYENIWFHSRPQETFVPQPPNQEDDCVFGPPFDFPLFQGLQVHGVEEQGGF


Experiments:
G-CSF receptor [1] = biological target: T1, G-CSF receptor; assay: Luciferase reporter gene assay in G-CSF-responsive NFS60 cells; type: cell-based, murine; settings: for activation in the luciferase assay: concentration range of 1 to 100 micromolar
Procedure: Activity of compound 1a is below the threshold of 150% over background. The study was performed as a Luciferase assay configured on the G-CSF-responsive NFS60 cell line as described in Tian et al., Science 281, 257-259 (1998). The experiments shown in FIGS. 2-8 used the same NFS60 cell line.
Compounds of the present invention were tested for potency as agonist of the G-CSF receptor in a Luciferase reporter gene assay such as described in Tian et al., Science 281, 257-259 (1998). The NFS60 cells (Holmes, et al., Proc. Natl. Acad. Sci. USA 82:6687-6691 (1985)) were selected because they express endogenous G-CSF receptors closely matching the pattern of STAT (signal transducers and activators of transcription) activation observed in primary murine and human bone marrow cells.

G-CSF receptor [2] = biological target: T1, G-CSF receptor; assay: Luciferase assay in NFS60 cells in the presence of EDTA; type: cell-based, murine; settings: for G-CSF agonist activity in the presence of EDTA (metal ion mediation): FIGS. 3 and 4
Procedure: The media in this assay contained a small amount (1-5 uM) of zinc(II).
In order to determine the requisiteness of zinc chelation of small organic molecules to agonist activity at the G-CSF receptor, the above luciferase assay was performed in the presence of EDTA.

CFU-G = CFU-G assay; type: cell-based, murine; settings: concentration range of 1 to 100 micromolar
Procedure: Compounds of this invention are also tested for activity in the following assays: CFU-G assay (an example of which is described in King A. G., Talmadge J., Badger A. M., Pelus L. M. Regulation of colony stimulating activity production from bone marrow stromal cells by the hematoregulatory peptide, HP-5. Exp. Hematol. 20:223-228, 1992) and in vivo evaluation of peripheral blood neutrophil and monocyte count in the mouse (an example of which is described in Pelus, L. M.; King, A. G.; Broxmeyer, H. E.; DeMarsh, P. L.; Petteway, S. R.; Bhatnagar, P. K., In vivo modulation of hematopoiesis by a novel hematoregulatory peptide Exp-Hematol. 1994 22(3):239-47). In order to confirm the requirement for zinc(II) chelation, the above CFU-G assay was also conducted in the presence of EDTA.

[3] = test system: peripheral blood neutrophil and monocyte count; assay: In vivo evaluation of peripheral blood neutrophil and monocyte count; settings: mouse
Procedure: Compounds of this invention are also tested for activity in the following assays: CFU-G assay (an example of which is described in King […]., Badger A. M., Pelus L. M. Regulation of colony stimulating activity production from bone marrow stromal cells by the hematoregulatory peptide, HP-5. Exp. […] M.; King, […].; DeMarsh, […]., In vivo modulation of hematopoiesis by a novel hematoregulatory peptide Exp-Hematol. 1994 22(3):239-47).

G-CSF/Fc fusion protein = assay: Isothermal titration microcalorimetry; type: binding; settings: in the presence of zinc
Procedure: Zinc-mediated affinity of compounds from this invention for the G-CSF receptor was measured by isothermal titration microcalorimetry experiments. Titration microcalorimetry detects binding as heat originating from the intrinsic bond forming enthalpy change. […] In a separate experiment, the compounds were then assayed in the presence of zinc and a G-CSF/Fc fusion protein, which contained the extracellular domain of the G-CSF receptor presented in a dimeric form due to the Fc component.

| Molecule | activation in the luciferase assay (G-CSF receptor [1]) | G-CSF agonist activity in the presence of EDTA (metal ion mediation) (G-CSF receptor [2]) | activation in the murine CFU-G assay (CFU-G) | peripheral blood neutrophil and monocyte count [3] | affinity for G-CSF/Fc fusion protein (G-CSF/Fc fusion protein) | also measured |
| --- | --- | --- | --- | --- | --- | --- |
| [Zn+2].c1ccc(C23NC(=Nc4nc5ccccc5[nH]4)NC2(c2ccccn2)NC(=Nc2nc4ccccc4[nH]2)N3)nc1.c1ccc(C23NC(=Nc4nc5ccccc5[nH]4)NC2(c2ccccn2)NC(=Nc2nc4ccccc4[nH]2)N3)nc1 (stereo not drawn) [Compound 1, Bis{2,5-bis[2-benzimidazolylimino]-3a,6a-bis(2-pyridyl)-1,2,3,3a,4,5,6,6a-octahydroimidazo[4,5-d]imidazole-N,N'}-zinc(II)] | above 150 % of control | – | – | – | – | – |
| c1ccc(C23NC(=Nc4nc5ccccc5[nH]4)NC2(c2ccccn2)NC(=Nc2nc4ccccc4[nH]2)N3)nc1 (stereo not drawn) [Compound 1a, 2,5-Bis[2-benzimidazolylimino]-3a,6a-bis(2-pyridyl)-1,2,3,3a,4,5,6,6a-octahydroimidazo[4,5-d]imidazole] | above 150 % of control | abrogated | above 150 % of control | elevation of peripheral blood neutrophil and monocyte count | high, submicromolar affinity | luciferase activity (G-CSF agonist activity) (G-CSF receptor [1]; NFS60 cells, absence of zinc, FIG. 1): < 150 % over background; luciferase activity (G-CSF receptor [1]; NFS60 cells, presence of 1 uM zinc (II), FIG. 2): about 350 % over control; G-CSF agonist efficacy (G-CSF receptor [1]; presence of 1 uM zinc(II), at 1 uM, FIG. 2): 350 % over background; effect of EDTA on luciferase activity (G-CSF receptor [2]; EDTA 1.2 millimolar, media contained 1-5 uM zinc(II), FIG. 3): antagonized |
| c1ccc(C23NC(=Nc4nc5ccccc5[nH]4)NC2(c2ccccc2)NC(=Nc2nc4ccccc4[nH]2)N3)cc1 (stereo not drawn) [Compound 2a, 2,5-Bis[2-benzimidazolylimino]-3a,6a-diphenyl-1,2,3,3a,4,5,6,6a-octahydroimidazo[4,5-d]imidazole] | above 150 % of control | – | – | – | – | – |
| Cc1ccc2nc(N=C3NC4(c5ccccn5)NC(=Nc5nc6ccccc6[nH]5)NC4(c4ccccn4)N3)[nH]c2c1.O=C(O)C(F)(F)F.O=C(O)C(F)(F)F (stereo not drawn) [Compound 3a, 5-(2-benzimidazolylimino)-2-[(5-methyl-2-benzimidazolyl)imino]-3a,6a-bis(2-pyridyl)-1,2,3,3a,4,5,6,6a-octahydroimidazo[4,5-d]imidazole bis(trifluoroacetate) salt] | above 150 % of control | – | above 150 % of control | elevation of peripheral blood neutrophil and monocyte count | high, submicromolar affinity | – |
| zinc (II) [reference compound] | – | – | – | – | – | effect of metal chlorides on the EDTA depleted activity of Compound 1a (G-CSF receptor [2]; 50 micromolar EDTA, metal at 0.5-10 micromolar, FIGS. 7 and 8): can overcome the inhibition |
| recombinant G-CSF: natural ligand for the G-CSF receptor (G-CSF or recombinant G-CSF) (protein, UniProt P09919 31-207, looked up) Granulocyte …: TPLGPASSLPQSFLLKCLEQVRKIQGDGAALQEKLVSECATYKLCHPEELVLLGHSLGIPWAPLSSCPSQALQLAGCLSQLHSGLFLYQGLLQALEGISPELGPTLDTLQLDVADFATTIWQQMEELGMAPALQPTQGAMPAFASAFQRRAGGVLVASHLQSFLEVSYRVLRHLAQP | – | not mediated by metal ions | – | – | – | effect of EDTA on luciferase activity (G-CSF receptor [2]; EDTA 1.2 and 5 millimolar, FIG. 4): little effect |
